Test [1] deals with neuropathic mechanical allodynia induced by CCI surgery. Description: Chronic Constriction Injury (CCI) Neuropathic Pain Model in Rats with Pain Behavior Read Out. The class given is in vivo, male Sprague-Dawley rats. The following applies: rat CCI, von Frey, BID p.o. days 0 through 9. The protocol:
Aim of the study was to test the efficacy of example 68 at ameliorating neuropathic mechanical allodynia. Male Sprague-Dawley rats were subject to chronic constriction injury of the sciatic nerve to induce neuropathic pain. Of those rats, 10 per group were assigned to treatment conditions involving BID drug administration for 10 days and behavioral assessment of mechanical sensitivity for allodynia with von Frey testing (vF). Behavior was assessed pre- and postdosing on Days 0, 2, 5, and 9. Rats were treated with Vehicle or test article BID on days 0 through 9, and rats in the gabapentin treatment group received gabapentin SID on days 0, 2, 5, and 9 in conjunction with behavioral assessment.
As vehicle Solutol/DMSO/WFI (40/10/50) was employed. Application volume for the per oral administration was 10 ml/kg.
Neuropathy was induced in male Sprague-Dawley rats by tying four loose ligatures of chromic gut around the common sciatic nerve in deeply anesthetized rats like described in Bennett, G. J., and Y. K. Xie. “A Peripheral Mononeuropathy in Rat That Produces Disorders of Pain Sensation like Those Seen in Man.” Pain 33 (1988): 87-107.
Mechanical allodynia was measured using 8 Semmes-Weinstein filaments (Stoelting©; Wood Dale, Ill., USA) with varying stiffness (0.4, 0.6, 1.0, 2.0, 4.0, 6.0, 8.0, and 15 g) according to the up-down method1. Animals were placed in individual acrylic chambers on a metal mesh surface and allowed to acclimate to their surroundings for a minimum of 15 minutes before testing. Each filament was presented perpendicular to the plantar surface with sufficient force to cause slight buckling against the paw and held for approximately 6 seconds or until a positive response is noted (paw sharply withdrawn).
Testing was initiated with the 2.0 g filament. In the absence of a paw withdrawal response, the next stronger stimulus was presented. In the event of paw withdrawal, the next weaker stimulus was used. […]
The 50% response threshold is calculated using the formula: […]

In test [2] the test system is intraplantar Complete Freund's Adjuvant (CFA)-induced acute inflammatory pain. The test can be described thus: CFA Inflammation Model in Rats with Pain Behaviour Read Out. The class given is in vivo, male Sprague Dawley rats. The following applies: for PWT 2 hour-post drug: mean PWT. The protocol:
Compound was tested in the model of intraplantar Complete Freund's Adjuvant (CFA)-induced acute (48-hours setting) inflammatory pain in male Sprague Dawley rats. Briefly, 25 μl of CFA at 1 mg/ml was injected into the plantar surface of one hind paw. Mechanical hyperalgesia was measured using the Pressure Application Measurement apparatus (Ugo Basile, Gemonio, Italy). A linearly increasing pressure was applied to an area of approximately 50 mm^2 of the plantar side of the hind paw until a behavioural response (paw withdrawal) was observed or until the pressure reached 1000 grams of force (gf). The pressure at which the behavioural response occurred was recorded as the “Paw Withdrawal Threshold” (PWT). Both CFA-injected and contralateral PWTs were determined for each rat, in each treatment group and at each time point of the studies. The measurements were performed blinded. […] Compound or vehicle (10% DMSO, 40% Solutol, 50% water for injection, vol/vol) were dosed via oral route (p.o.) once daily (QD) or twice daily (BID) during 3 days, starting before CFA injection. Data were expressed as the mean PWT for each treatment group and at each time point. PWT data were analysed by performing a two way ANOVA with repeated measures (time×treatment). Planned comparison of means (each versus vehicle) was performed by using a Dunnett's post hoc test, provided that a main effect was detected. For p values less than 0.05, the results were deemed to be statistically significant.

For `CC(=O)N(c1ccc(F)c(F)c1)c1cc(NC(=O)Cc2ccc(F)cc2Cl)ccn1` [Example 68, N-{4-[2-(2-chloro-4-fluorophenyl)acetamido]pyridin-2-yl}-N-(3,4-difluorophenyl)acetamide], the “mechanical allodynia induced by CCI surgery” value in test [1] is given as “decreased mechanical allodynia”. Further, the “50% paw withdrawal threshold” value in test [1] (30 and 100 mg/kg (FIG. 1)) is “increased 50% paw withdrawal threshold significantly”. In addition, the “PWT 2 hour-post drug” value in test [2] (rat CFA, 10 mg/kg BID p.o. during 3 days) came to 630 gf; in test [2] (rat CFA, 30 mg/kg BID p.o. during 3 days), 648 gf; in test [2] (rat CFA, 100 mg/kg BID p.o. during 3 days), 759 gf. The pain after treatment entry in test [2] (rat CFA, 10, 30 and 100 mg/kg doses BID, 2 hours after last administration) is recorded as “significantly reduced pain”. In test [2] (rat, oral administration BID during 3 days), the “development of inflammatory pain after the injection of CFA” value is “prevented the development of inflammatory pain”.
